Reference: article PMC3488872 (Chemistry & biology, 2012)

Tested on: HeLa cells transfected with GR-GFP
Assay: GR-GFP translocation assay for cytosolic access

Compound: C[C@@H]1C[C@H]2[C@@H]3CCC4=CC(=O)C=C[C@]4(C)[C@@]3(F)[C@@H](O)C[C@]2(C)[C@@]1(O)C(=O)CO [Dex, dexamethasone]
- effect of bafilomycin on TR (200 nM bafilomycin 1 h pretreatment, then 1 μM): did not alter
- effect of EIPA on TR (50 μM EIPA 30 min pretreatment, then 1 μM 30 min 37°C): Neither EIPA nor dynasore blocked the increase
- effect of dynasore on TR (80 μM dynasore 30 min pretreatment, then 1 μM 30 min 37°C): Neither EIPA nor dynasore blocked the increase
- reduction of the increase in TR by MβCD (5 mM MβCD, 1 μM 30 min): 53%
